{"source": "patent US20130267594A1", "about": "“PROLYL HYDROXYLASE INHIBITORS AS RADIATION MITIGATORS AND RADIATION PROTECTORS” (priority 2010, published 2013)", "key": {"[1]": {"system": "MEFs expressing shRNA targeting Hif1α", "assay": "Clonogenic cell survival assay after ionizing radiation, MEFs with Hif1α silenced", "type": "cell-based, mouse", "conditions": "DMOG 1 mM, FIG. 11A"}, "Suv39h1/2−/− cells": {"system": "Suv39h1/2−/− cells", "assay": "Clonogenic cell survival assay after ionizing radiation, Suv39h1/Suv39h2 double knockout MEFs", "type": "cell-based, mouse"}, "H3K9me3 [2]": {"system": "H3K9me3", "assay": "Western blot of H3K9me3 in Suv39h1/2−/− MEFs (FIG. 4A)", "type": "cell-based, mouse", "conditions": "Suv39h1/2−/− cells, DMOG 100 μM/2hours", "protocol": "Cell lysates and Western blot analysis: Antibodies used: mHif1α (Santa Cruz Biotechnology, CA); hHIF1α (Abcam, CA); H3K9me3 (Millipore, N.Y.); β-actin (Cell Signaling Technology, Mass.); CHD4 and MTA3 (Bethyl Laboratories, Tex.); Suv39h1 (Novus, CA). To prepare nuclear lysates, cells were resuspended in 500 μl buffer A (10 mM Tris, pH8.0/1 mM EDTA, pH8.0/150 mM NaCl/0.5% NP-40/1 mM PMSF/5 μg/ml leupeptin/20 μg/ml aprotinin), incubated on ice for 15 min and centrifuged at 500 g for 5 min at 4° C. Supernatant was removed and the pellet resuspended in buffer B (20 mM Hepes, pH7.9/400 mM NaCl/1 mM EDTA/0.5 mM DTT/1 mM PMSF/5 μg/ml leupeptin/20 μg/ml aprotinin), incubated on ice for 15 min and cleared by centrifugation (21,000 g for 5 min at 4° C.). For western blots, equal amounts of protein (Bradford Protein Assay kit, Bio-Rad Laboratories, CA) were separated by electrophoresis and transferred to nitrocellulose membranes (Bio-Rad Laboratories, CA). Membranes were blocked with Odyssey Blocking Buffer (Li-Cor, NB), incubated with primary antibodies for 3 h, and washed in PBST (PBS and 0.1% Tween-20) followed by goat anti-mouse IR Dye-800CW or goat anti-rabbit IR Dye-680CW secondary antibodies (Li-Cor, NB). Imaging was performed using the Li-Cor Odyssey Near Infra Red System, and analyzed using the Odyssey software system 3.0 package (Li-Cor, NB)."}, "Suv39h1": {"system": "Suv39h1", "type": "cell-based"}, "MTA3": {"system": "MTA3", "type": "cell-based", "conditions": "MCF7 cells; CoCl2 200 μM time course, FIG. 8F; DMOG only stated"}, "H3K9me3 [3]": {"system": "H3K9me3", "assay": "H3K9me3 immunofluorescent staining in MEFs (FIG. 10A)", "type": "cell-based, mouse", "conditions": "DMOG 1 mM 24 hr", "protocol": "In FIG. 10A MEFs were incubated in either solvent (Control: DMSO) or DMOG (1 mM) for 24 hr. H3K9me3 levels were detected by immunofluorescent staining with antibody to H3K9me3 and co-stained with DAPI to locate nuclear DNA. In FIG. 10B HEK293T cells were transiently transfected with vector or KDM4A and allowed to recover for 30 hrs. Cells were either untreated or incubated with DMOG (1 mM) for 24 hrs. H3K9me3 levels were detected by immunofluorescent staining with antibody to H3K9me3. In FIG. 10C MCF-7 cells were incubated in increasing concentrations of DMOG or CoCl2 (200 μM) for 24 hrs. […] In FIG. 10D MCF-7 cells were incubated in DMOG (1 mM) or CoCl2 (200 μM) for the indicated time. […] In FIG. 10E MCF-7 cells expressing either a non-specific shRNA (shRNA^Con) or shRNA targeting Hif1α (shRNA^Hif1α) were incubated with DMOG or CoCl2 (200 μM) for 24 hrs.\n(§1) Immunofluorescence: Cells (on cover slides) were fixed in phosphate-buffered saline (PBS) containing 2% paraformaldehyde. Cells were permeabilized in 0.2% Triton X-100 in PBS for 5mins, and then blocked in fetal bovine serum for 20 min, Primary antibodies were prepared in 10% fetal bovine serum supplemented with 0.2% saponin. After a 1 h incubation with primary antibody, cells were washed three times with 0.2% Tween-20 and incubated for 1 h in secondary antibody (conjugated to either Texas Red or FITC; Santa Cruz Biotechnology, CA). […]"}, "KDM4D": {"biological_target": "T1, KDM4D (Homo sapiens, UniProt Q6B0I6)", "T1 construct": "expressed in transfected cells", "T1 sequence (Q6B0I6 1-523)": "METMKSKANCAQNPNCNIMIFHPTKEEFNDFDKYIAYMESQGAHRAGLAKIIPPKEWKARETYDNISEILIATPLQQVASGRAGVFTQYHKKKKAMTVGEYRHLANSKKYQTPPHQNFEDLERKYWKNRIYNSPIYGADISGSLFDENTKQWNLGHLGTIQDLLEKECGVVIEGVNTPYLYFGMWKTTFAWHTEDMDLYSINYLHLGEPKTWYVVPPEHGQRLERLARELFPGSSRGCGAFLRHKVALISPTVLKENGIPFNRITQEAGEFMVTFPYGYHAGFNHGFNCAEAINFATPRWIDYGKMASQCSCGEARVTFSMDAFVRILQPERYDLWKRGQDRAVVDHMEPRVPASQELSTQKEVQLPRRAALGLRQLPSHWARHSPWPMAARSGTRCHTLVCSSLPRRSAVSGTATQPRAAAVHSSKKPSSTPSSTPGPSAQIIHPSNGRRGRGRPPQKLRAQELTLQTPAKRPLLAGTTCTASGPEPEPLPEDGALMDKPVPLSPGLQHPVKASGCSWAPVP", "assay": "KDM4D demethylation of H3K9me3 in transfected cells, immunofluorescent staining (FIG. 2)", "type": "cell-based", "protocol": "HeLa cells were transiently transfected with either vector or KDM4D, followed by incubation with either solvent (PBS, control) or DMOG (100 μM) and then visualized by fluorescent microscopy.\nas §1, with “CA). Slides were mounted with Fluoromount-G (Southern Biotech, AL).” for “CA).”\nKDMs utilize an Fe-oxo intermediate to form an unstable hydroxy-methyl intermediate, which spontaneously releases formaldehyde, leading to removal of a single methyl group. […] In FIG. 2B, Murine Embryonic Fibroblasts (MEFs) were transfected with empty vector or KDM4D, which specifically demethylates H3K9me3, and the levels of chromatin associated H3K9me3 measured by immunofluorescent staining using an anti-H3K9me3 antibody. In untreated cells, high levels of H3K9me3 were detected, and transient expression of the H3K9me3 demethylase KDM4D essentially demethylated the entire nuclear H3K9me3 signal. […]"}}}
{"compound": "COC(=O)CNC(=O)C(=O)OC", "note": "[DMOG, dimethyloxalylglycine]", "values": [{"measurement": "radioresistance (clonogenic survival) when Hif1α was silenced", "setting": "[1]", "result": "this effect was lost"}, {"measurement": "protective effect (clonogenic survival) in SuvDKO MEFs versus normal MEFs", "setting": "Suv39h1/2−/− cells; MEF-SuvDKO, DMOG 1 mM, FIG. 11C", "result": "significantly reduced"}, {"measurement": "radioprotective effect (clonogenic survival)", "setting": "Suv39h1/2−/− cells; Suv39h1/h2−/− cells compared to +/+, FIG. 4B", "result": "much larger radioprotective effects"}, {"measurement": "levels of H3K9me3 (Western blot)", "setting": "H3K9me3 [2]", "result": "increased the levels of H3K9me3 in Suv39h1/2−/− cells to a level similar to those seen in Suv39h1/1+/+ cells"}, {"measurement": "DMOG dependent induction of Suv39h1 in cells lacking Hif1α", "setting": "Suv39h1", "result": "abolished"}, {"measurement": "expression of the Suv39h1 methyltransferase", "setting": "Suv39h1", "result": "increased expression of the Suv39h1 methyltransferase"}, {"measurement": "MTA3 protein levels", "setting": "MTA3", "result": "increased"}, {"measurement": "H3K9me3 in cells", "setting": "H3K9me3 [3]", "result": "rapidly increased H3K9me3"}, {"measurement": "ability of KDM4D to demethylate H3K9me3", "setting": "KDM4D; cells expressing KDM4D, DMOG 100 μM, anti-H3K9me3 staining", "result": "inhibited the ability of KDM4D to demethylate H3K9me3"}, {"measurement": "level of expression of the KDM4D enzyme", "setting": "KDM4D; control experiments to FIG. 2", "result": "did not alter the level of expression of the KDM4D enzyme"}]}
